Biological target: GSK-3β (Homo sapiens, UniProt P49841)
Test: GSK-3 kinase scintillation proximity assay (SPA) with biotinylated glycogen synthase peptide
Format: biochemical
Conditions: 20 nM kinase, 2.5 uM ATP, 40 minutes at room temperature; pIC50 = -log IC50 in Molar; read-out: GSK-3 inhibition
Excerpt: The phosphorylated biotinylated peptide is then captured onto streptavidin coated scintillation proximity assay (SPA) beads from Amersham Technology, where the signal from the ^33P is amplified via the scintillant contained in the beads.
GSK-3β, is commercially available or may be cloned and expressed in E coli using standard techniques to produce soluble, active protein. The production of active protein involves purification in two steps using Metal Chelate and Ion Exchange Chromatography. Protein eluting from Ion Exchange provides >90% pure product that may then be concentrated for use in high throughput screening.
The kinase was assayed at a concentration of 20 nM final in 100 mM HEPES, pH 7.2 containing 10 mM magnesium chloride, 0.1 mg/mL bovine serum albumin, 1 mM dithiothreitol, 0.3 mg/mL heparin, 2.8 uM peptide substrate, 2.5 uM ATP, and 0.2 uCi/well γ^33P]-ATP. After 40 minutes incubation at room temperature, the reaction was stopped by addition of 100 mM EDTA and […] in 100 mM HEPES, pH7.2 followed by an additional solution of diluted Streptavidin coated SPA beads in PBS, pH 7.2 to give a final concentration of 0.25 mg of beads per assay well in a 96-well microtiter plate.
10 mM stock solutions of the compounds of the invention in 100% DMSO are generated as a first step in the screening process. The second step involves the creation of dose response plates where these compounds are diluted 10-fold in 100% DMSO to 1 mM concentrations and subsequently serially diluted 3-fold in 100% DMSO across the plate by automated liquid handling such that the final top concentration of inhibitor is 0.033 mM in the 30 uL kinase assay. The third step involves the creation of the assay plates. This is achieved by transferring 1 uL of the compounds to assay plates by automated liquid handling. The fourth step is to perform the assay as described and count the resulting plates in the Packard TopCount NXT microplate scintillation and luminescence counter. The final step is data acquisition and analysis where IC50 values are generated for each compound by normalizing curve data to the equation 100*(U1−C2)/(C1−C2) (where U1 is the cpm value, C2 is the background, and C1 is the maximum number of counts), then fitting the normalized data to the equation y=Vmax*(1−(x/(K+x))). The IC50 values were converted to pIC50 values, i.e., -log IC50 in Molar concentration.

Sequence of GSK-3β (P49841 whole entry, species assumed): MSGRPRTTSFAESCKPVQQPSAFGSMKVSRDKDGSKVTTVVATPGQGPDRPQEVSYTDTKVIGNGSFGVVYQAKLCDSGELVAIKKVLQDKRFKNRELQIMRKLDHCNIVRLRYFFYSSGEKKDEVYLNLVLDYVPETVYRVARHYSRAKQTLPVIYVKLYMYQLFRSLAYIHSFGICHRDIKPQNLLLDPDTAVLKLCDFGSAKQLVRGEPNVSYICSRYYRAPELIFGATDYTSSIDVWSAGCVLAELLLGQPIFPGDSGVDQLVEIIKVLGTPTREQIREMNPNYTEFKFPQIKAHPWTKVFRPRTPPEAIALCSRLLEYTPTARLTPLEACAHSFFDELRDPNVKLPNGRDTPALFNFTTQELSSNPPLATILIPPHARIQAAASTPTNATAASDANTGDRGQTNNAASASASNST

Question: For `COc1ccc(-c2cc3c(NC(=O)C4CCCC4)ncnc3o2)cc1` [Example 3, Cyclopentanecarboxylic acid [6-(4-methoxy-phenyl)-furo[2,3-d]pyrimidin-4-yl]-amide], which IC50 is on record?
Answer: 0.01 to 0.1 µM

Question: `COc1ccc(-c2cc3c(NC(=O)CCSC)ncnc3o2)cc1` [Example 4, N-[6-(4-Methoxy-phenyl)-furo[2,3-d]pyrimidin-4-yl]-3-methylsulfanyl-propionamide] was tested. Which IC50 did it give?
Answer: 0.1 to 1 µM

Question: Which IC50 does the source give for `COc1ccc(-c2cc3c(NC(=O)C4CCCCC4)ncnc3o2)cc1` [Example 6, Cyclohexanecarboxylic acid [6-(4-methoxy-phenyl)-furo[2,3-d]pyrimidin-4-yl]-amide] here?
Answer: > 1 µM

Question: With `O=C(Nc1ncnc2oc(-c3cccnc3)cc12)C1CCCC1` [Example 20, Cyclopentanecarboxylic acid (6-pyridin-3-yl-furo[2,3-d]pyrimidin-4-yl)-amide] as the molecule, how does the IC50 read?
Answer: < 0.01 µM

Source: US20070088031A1, “Novel chemical compounds” (priority 2003, published 2007)
